Results from US4937346A, “Phenyl-azacykloalkanes” (Carlsson; Per Arvid Emil, priority 1979, dated 1990).
Read-outs that look alike come from different tables or passages of the source.

Key:
[1] = test system: postsynaptic DA receptors; experiment: Antagonism of the reserpine-induced "neuroleptic syndrome" in the rat; assay type: in vivo; settings: s.c., different doses, not even at nearly lethal doses
Excerpt: 1. Antagonism of the reserpine-induced "neuroleptic syndrome" in the rat
Depletion of the monoamine stores with reserpine brings about a "neuroleptic syndrome" characterized by hypomotility, catalepsy, muscle rigidity, hunch-backed posture as well as a number of other central and peripheral signs of monoamine depletion. This syndrome can be reversed by the administration of drugs that stimulate postsynaptic DA receptors directly or indirectly, e.g. apomorphine, L-Dopa.
Rats (150-300 g) pretreated with reserpine (10 mg/kg i.p., 6 h before) were given compound 4 subcutaneously at different doses.

[2] = test system: rat brain tyrosine hydroxylation; experiment: In-vivo determination of rat brain tyrosine hydroxylation (Dopa formation after NSD 1015, reserpine-pretreated rats); settings: sc, reserpine-pretreated rats, Dopa level
Protocol: 2. In-vivo determination of rat brain tyrosine hydroxylation.
The compounds under evaluation were tested biochemically for central DA-receptor (pre- and/or postsynaptic) stimulating activity. The concept of this biochemical screening method is that a DA-receptor agonist will stimulate the receptor and through regulatory feedback systems effect a decline in tyrosine hydroxylase activity and thus a subsequent reduction in the synthesis rate for DA in the presynaptic neuron. Dopa formation, as determined after in-vivo inhibition of the aromatic L-amino acid decarboxylase with NSD 1015 (3-hydroxybenzyl-hydrazine hydrochloride), is taken as an indirect measure of DA synthesis rate.
Rats (150-300 g) pretreated with reserpine were given the compounds under evaluation. Gross behavioral observations (changes in motility, stereotypies etc.) were made in order to evaluate possible postsynaptic dopamine receptor activity. Subsequent administration of NSD 1015, decapitation, brain dissection (corpora striate and the limbic fore-brain), homogenization, centrifugation, ion-exchange chromatography and spectrofluorimetric measurements (all as described in detail by Wikstrom et al., in J. Med. Chem. 21, 864-867, 1978, and references cited therein), gave the actual Dopa levels. Several doses (n=4-6) were tested in order to obtain dose-response curves for each compound and brain area. The dose of a compound producing a half-maximal decrease in the Dopa level in the rat brain part was then estimated.

DA autoreceptors [3] = experiment: Effect on spontaneous locomotor activity in the rat; assay type: in vivo; settings: for Motor activity: 0-15 min
Excerpt: 4. Effect on spontaneous locomotor activity in the rat.
Untreated animals exposed to a new environment display an initial high motor activity which then gradually declines over a period of time. Administration of DA-receptor agonists (e.g. apomorphine) in doses where preferential autoreceptor stimulation is likely to occur, causes a depression of the spontaneous motility mentioned above, considered to be due to the DA autoreceptor-mediated impairment of central DA transmission.
Rats (150-300 g) were injected subcutaneously with several doses of compounds 4 and after 5 minutes they were individually placed in motility boxes ("M/P 40 Fc Electronic Motility Meter". Motron Products, Stockholm) and the motor activity (0-30 min.) was quantified. […] Moreover, there seems to be a correlation between the decrease in spontaneous locomotion and the degree of antagonism of the GBL-induced increase in DA synthesis (cf. 3 above) in the limbic areas of rat brain exerted by compound 4, the per cent decrease of motor activity being roughly 0.6 times the per cent reversal of GBL-induced increase in DA-synthesis rate.

DA autoreceptors [4] = experiment: Turning behavior in rats with acute unistriatal KCl lesion; assay type: in vivo, rat; design: key to Catalepsy: + present; - absent; settings: for Apomorphine-induced turning: apomorphine 1.0 mg/kg s.c. 1 h after
Excerpt: 5. Turning behavior in rats with acute unistriatal lesion.
In animals with an acute unilateral KCl-lesion (1μ1 25% KCl lesioned side, 1μ1 20% NaCl control side, administered through previously implanted "guide cannulaes") of the striatum, compensatory counterbalancing adjustments in the intact contralateral striatum are brought about and therefore no appreciable asymmetry in body posture or torsion is observed. Disturbances in the balance produces, depending on the point of attack, ipsi- or alternatively contralateral turning. In this model postsynaptically active DA agonists (e.g. apomorphine, high dosage) elicit ipsilateral turning and rotatory behavior whereas DA antagonists (e.g. haloperidol) cause contralateral turning. Consequently it could be expected that agents acting exclusively on DA autoreceptors would produce contralateral turning in the lesioned animals.

Rat rectal temperature = assay type: in vivo; settings: 8 mg/kg s.c., 0-30 min
Excerpt: It was in fact lacking any measurable temperature effects.

[5] = test system: central postsynaptic DA-receptor; experiment: Locomotor activity in reserpine-pretreated rats, comparison of compound 4 with two known dopaminergic agonists; assay type: in vivo, rat
Protocol: Rats (150-300 g) pretreated with reserpine (10 mg/ kg i.p., 6 h before) were given either phys. saline, compound 4 (100 μmol/kg), N-n-propyl-3-(3,4-dihydroxyphenyl)piperidine (100 μmol/kg) or apomorphine ([…]) subcutaneously and the locomotor activity (accumulated counts 0-60 min.) was quantified by means of Motron boxes (see under 4 above).

[6] = test system: dopaminergic receptors (presynaptic and postsynaptic); settings: racemic mixtures; cited from earlier work

Br.CCCN1CCCC(c2cccc(O)c2)C1 (racemic) [Compound 4, N-n-propyl-3-(3-hydroxyphenyl)piperidine hydrobromide]
antagonism of the reserpine-induced syndrome [1]: no antagonism of the reserpine-induced syndrome was observed | ED50 ([2]; limbic, read-out: ED50 Limbic): 2.7 µmol/kg | ED50 ([2]; striatum, read-out: ED50 Striatum): 2.7 µmol/kg | Motor activity (DA autoreceptors [3]; glucose i.p. + compound 4 0.5 mg/kg s.c., n=5): 43 ± 9 acc. counts | Motor activity (DA autoreceptors [3]; haloperidol 0.02 mg/kg i.p. + compound 4 0.5 mg/kg s.c., n=7): 80 ± 10 acc. counts | reversal of sedative effect by haloperidol (DA autoreceptors [3]; haloperidol 0.02 mg/kg i.p. 30 min before, compound 4 0.5 mg/kg): at least partly reversed the sedative effect | per cent decrease of motor activity relative to per cent reversal of GBL-induced increase in DA-synthesis rate (DA autoreceptors [3]; limbic areas, correlation): roughly 0.6 times | locomotor stimulation (DA autoreceptors [3]; regardless of the dose used): No locomotor stimulation was ever seen | maximal decrease of motor activity from control values (DA autoreceptors [3]; s.c., 0-30 min, at about 8 mg/kg): 75% | dose at which maximal effect is attained (DA autoreceptors [3]; s.c., 75% decrease from control values): about 8 mg/kg | dose dependence of motor activity effect (DA autoreceptors [3]; s.c., several doses): clear dose-dependent decrease of the initial high motor activity | Catalepsy (DA autoreceptors [4]; 1 mg/kg s.c.): - | Turning contralateral (DA autoreceptors [4]; 1 mg/kg s.c., 2 animals): 2 | Turning ipsilateral (DA autoreceptors [4]; 1 mg/kg s.c., 2 animals): 0 | Catalepsy (DA autoreceptors [4]; 2 mg/kg s.c.): - | Duration of turning (DA autoreceptors [4]; 2 mg/kg s.c.): > 2 h | Turning contralateral (DA autoreceptors [4]; 2 mg/kg s.c., 4 animals): 4 | Turning ipsilateral (DA autoreceptors [4]; 2 mg/kg s.c., 4 animals): 0 | Apomorphine-induced turning (DA autoreceptors [4]; 2 mg/kg s.c.): Ipsi 4/4 | Catalepsy (DA autoreceptors [4]; 4 mg/kg s.c.): - | Turning contralateral (DA autoreceptors [4]; 4 mg/kg s.c., 2 animals): 2 | Turning ipsilateral (DA autoreceptors [4]; 4 mg/kg s.c., 2 animals): 0 | Catalepsy (DA autoreceptors [4]; 8 mg/kg s.c.): - | Duration of turning (DA autoreceptors [4]; 8 mg/kg s.c.): > 4 h | Turning contralateral (DA autoreceptors [4]; 8 mg/kg s.c., 4 animals): 4 | Turning ipsilateral (DA autoreceptors [4]; 8 mg/kg s.c., 4 animals): 0 | Apomorphine-induced turning (DA autoreceptors [4]; 8 mg/kg s.c.): Ipsi 4/4 | Catalepsy (DA autoreceptors [4]; 32 mg/kg s.c.): + | Duration of turning (DA autoreceptors [4]; 32 mg/kg s.c.): > 4 h | Turning contralateral (DA autoreceptors [4]; 32 mg/kg s.c., 8 animals): 8 | Turning ipsilateral (DA autoreceptors [4]; 32 mg/kg s.c., 8 animals): 0 | Apomorphine-induced turning (DA autoreceptors [4]; 32 mg/kg s.c.): Ipsi 8/8 | effect on apomorphine ipsilateral turning and rotatory response (DA autoreceptors [4]; apomorphine 1.0 mg/kg s.c., pretreatment with compound 4): not affected by pretreatment with compound 4 | turning direction (DA autoreceptors [4]; s.c., each dose tested): made the animals turn to the side contralateral to the lesion | overall appearance (DA autoreceptors [4]; s.c., lesioned rats): indicative of a sedative action | effect on rectal temperature (Rat rectal temperature): failed to lower the rat rectal temperature | Motor activity ([5]; 0-60 min postinj., 100 μmol/kg s.c.): 55 ± 4 acc. counts | central postsynaptic DA-receptor stimulation / motor response ([5]; s.c.): failed to elicit a motor response that differed more than slightly from control values | activation of classical postsynaptic dopaminergic receptors [6]: no concomitant activation of the classical postsynaptic dopaminergic receptors could be detected
